From patent US11807693B2 (priority 2014, dated 2023) come the findings set out here.

Molecules are shown by their SMILES. Read-outs that look alike come from different tables or passages of the source. Starred links: 1 amine or outer side, 2 acyl side, 3 side chain; linkers in the order of their positions; H or OH if unused. Non-standard residues stand in square brackets, D forms with d. Residues, ends and D or L forms follow the SMILES beside them. *: point of attachment. dBip = N[C@H](Cc1ccc(-c2ccccc2)cc1)C(=O)O; Oic = O=C(O)[C@@H]1C[C@@H]2CCCC[C@@H]2N1; dPhe(4-Cl) = N[C@H](Cc1ccc(Cl)cc1)C(=O)O; Phe(4-I) = N[C@@H](Cc1ccc(I)cc1)C(=O)O; γGlu = O=C(O)[C@H](CCC(=O)[*:2])N[*:1]; NMeR = CN[C@@H](CCCNC(=N)N)C(=O)O; Tridecanoyl = CCCCCCCCCCCCC(=O)*; hArg = N=C(N)NCCCC[C@H](N)C(=O)O; Cha = N[C@@H](CC1CCCCC1)C(=O)O; NMeL = CN[C@@H](CC(C)C)C(=O)O; Nle = CCCC[C@H](N)C(=O)O; AEEA = NCCOCCOCC(=O)O; βAla = NCCC(=O)O

The nature of data set [1]: In vitro stability in rat plasma. The format is in vitro ADME. In outline: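 Incubations: 5 μM apelin peptide, 37° C., 4 hr, in rat plasma, liver or kidney homogenate. Read-out via high resolution LC-MS after MeOH/internal standard precipitation and centrifugation.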
For a further data set, the target named is T1, human APJ receptor (Homo sapiens, UniProt P35414).
T1 construct: expressed in transfected cells
T1 sequence (P35414 1-380): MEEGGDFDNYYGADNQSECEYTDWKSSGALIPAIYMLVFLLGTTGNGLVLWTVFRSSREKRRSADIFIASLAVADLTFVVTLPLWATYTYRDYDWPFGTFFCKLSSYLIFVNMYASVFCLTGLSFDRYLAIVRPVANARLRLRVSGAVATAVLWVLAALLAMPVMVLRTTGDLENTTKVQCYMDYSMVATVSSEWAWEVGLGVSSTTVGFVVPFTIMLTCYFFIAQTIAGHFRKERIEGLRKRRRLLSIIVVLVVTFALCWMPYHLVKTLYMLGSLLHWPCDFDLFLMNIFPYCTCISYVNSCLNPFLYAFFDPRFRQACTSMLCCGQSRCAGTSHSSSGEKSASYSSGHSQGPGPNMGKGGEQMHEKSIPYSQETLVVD
In words: [35S] GTPγS assay, human APJ receptor. The format is biochemical. On the technique in general: GTPγS is a poorly hydrolysed GTP analogue; its binding reports G protein activation.

The target in another data set is T2, rat APJ receptor (Rattus norvegicus, UniProt Q9JHG3).
T2 construct: expressed in transfected cells
T2 sequence (Q9JHG3 1-377): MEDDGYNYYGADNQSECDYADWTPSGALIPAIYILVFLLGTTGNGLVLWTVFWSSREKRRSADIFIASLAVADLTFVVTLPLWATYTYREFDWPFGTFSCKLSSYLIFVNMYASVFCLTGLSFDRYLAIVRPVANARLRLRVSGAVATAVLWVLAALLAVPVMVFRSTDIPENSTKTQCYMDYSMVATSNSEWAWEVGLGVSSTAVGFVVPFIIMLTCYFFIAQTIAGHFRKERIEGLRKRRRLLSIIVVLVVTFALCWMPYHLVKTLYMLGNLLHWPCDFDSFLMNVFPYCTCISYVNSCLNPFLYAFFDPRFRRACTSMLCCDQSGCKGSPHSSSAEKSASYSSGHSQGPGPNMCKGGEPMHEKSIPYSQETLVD
As to the kind of experiment: [35S] GTPγS assay, rat APJ receptor. The format is biochemical. Here is the method: The membranes were incubated with modified peptides in the assay buffer. […] Bound [^35S] GTPγS was separated from free radiolabel by filtration. The filter bound radioactivity was determined by liquid scintillation counting.

Where [2] appears, read: rat APJ receptor, read-out: EC50 Rat APJ Receptor.

For orientation: fraction remaining means the share of the starting amount still present when the sample was taken. A higher fraction remaining goes with less turnover. By EC50 is commonly meant the concentration giving half of the maximal effect. Consider `CCCCCCCCCCCCCCCC(=O)N[C@@H](CCC(=O)NCCOCCOCC(=O)NCCOCCOCC(=O)N[C@H](CCC(N)=O)C(=O)N[C@@H](CCCNC(=N)N)C(=O)N1CCC[C@H]1C(=O)N(C)[C@@H](CCCNC(=N)N)C(=O)N[C@@H](CC1CCCCC1)C(=O)N[C@@H](CO)C(=O)N[C@@H](Cc1c[nH]cn1)C(=O)N[C@@H](CCCCN)C(=O)NCC(=O)N1CCCC[C@H]1C(=O)N[C@@H](CCCC)C(=O)N1CCCC(C(=O)N[C@@H](Cc2ccc(Cl)cc2)C(=O)O)C1)C(=O)O` (single isomer, unassigned) [compound 588], for which, in data set [1], the fraction remaining at 4 h, 5 μM is over 90%. At human APJ receptor (human APJ receptor), the EC50 stood at 1.52 nM.
Turning to `CC(=O)N[C@@H](CCCCNC(=N)N)C(=O)N[C@H](CCCNC(=N)N)C(=O)N[C@@H](CCC(N)=O)C(=O)N[C@@H](CCC(=O)O)C(=O)N1CCC[C@H]1C(=O)N[C@H](CCCNC(=N)N)C(=O)N(C)[C@@H](CC(C)C)C(=O)N[C@@H](CO)C(=O)N[C@@H](Cc1c[nH]cn1)C(=O)N[C@@H](CCCCN)C(=O)NCC(=O)N1[C@H](C(=O)N[C@@H](Cc2ccc(I)cc2)C(=O)N2CCC[C@H]2C(=O)N[C@H](Cc2ccc(-c3ccccc3)cc2)C(=O)O)C[C@@H]2CCCC[C@@H]21` [compound 77] (Ac-[hArg][dR]QEP[dR][NMeL]SHKG[Oic][Phe(4-I)]P[dBip]-OH), the concentration giving a half-maximal response (EC50) at rat APJ receptor (setting [2]) came out at 2.85 nM; at human APJ receptor (human APJ receptor), 4.92 nM.
`CC(=O)N[C@@H](CCCCNC(=N)N)C(=O)N[C@H](CCCNC(=N)N)C(=O)N[C@@H](CCC(N)=O)C(=O)N[C@@H](CCCCNC(=N)N)C(=O)N1CCC[C@H]1C(=O)N[C@H](CCCNC(=N)N)C(=O)N(C)[C@@H](CC(C)C)C(=O)N[C@@H](CO)C(=O)N[C@@H](Cc1c[nH]cn1)C(=O)N[C@@H](CCCCN)C(=O)NCC(=O)N[C@@H](CCC(=O)O)C(=O)N[C@@H](Cc1ccc(I)cc1)C(=O)N1CCC[C@H]1C(=O)N[C@H](Cc1ccc(-c2ccccc2)cc1)C(=O)O` [compound 85] (Ac-[hArg][dR]Q[hArg]P[dR][NMeL]SHKGE[Phe(4-I)]P[dBip]-OH): the EC50 on rat APJ receptor (setting [2]) and on human APJ receptor (human APJ receptor) was over 4170 nM throughout.
For `CC(C)C[C@@H](C(=O)N[C@@H](CO)C(=O)N[C@@H](Cc1c[nH]cn1)C(=O)N[C@@H](CCCCN)C(=O)NCC(=O)N1[C@H](C(=O)N[C@@H](Cc2ccc(I)cc2)C(=O)N2CCC[C@H]2C(=O)N[C@H](Cc2ccc(-c3ccccc3)cc2)C(=O)O)C[C@@H]2CCCC[C@@H]21)N(C)C(=O)[C@@H](CCCNC(=N)N)NC(=O)[C@@H]1CCCN1C(=O)[C@H](CCCCNC(=N)N)NC(=O)[C@H](CCC(N)=O)NC(=O)[C@@H](CCCNC(=N)N)NC(=O)[C@H](CCCCNC(=N)N)NC(=O)COCCOCCNC(=O)COCCOCCNC(=O)CC[C@H](NC(=O)CCCCCCCCC(=O)O)C(=O)O` [compound 289], the EC50 came to 1.3 nM at rat APJ receptor (setting [2]) and 0.914 nM at human APJ receptor (human APJ receptor).
As for `CCCCCCCCCCCCC(=O)N[C@@H](CCC(=O)NCCOCCOCC(=O)NCCOCCOCC(=O)N[C@H](CCC(N)=O)C(=O)N[C@@H](CCCCNC(=N)N)C(=O)N1CCC[C@H]1C(=O)N(C)[C@@H](CCCNC(=N)N)C(=O)N[C@@H](CC1CCCCC1)C(=O)N[C@@H](CO)C(=O)N[C@@H](Cc1c[nH]cn1)C(=O)N[C@@H](CCCCN)C(=O)NCC(=O)N1[C@H](C(=O)N[C@@H](CCCC)C(=O)NCCC(=O)N[C@H](Cc2ccc(Cl)cc2)C(=O)O)C[C@@H]2CCCC[C@@H]21)C(=O)O` [compound 295] ({Tridecanoyl-γGlu-AEEA-AEEA}-[dQ][hArg]P[NMeR][Cha]SHKG[Oic][Nle][βAla][dPhe(4-Cl)]-OH), the EC50 is 10.4 nM on rat APJ receptor (Table 16, read-out: EC50 Rat APJ Receptor) and 3.29 nM on human APJ receptor (Table 16).
For `CCCCCCCCCCCCC(=O)N[C@@H](CCC(=O)NCCOCCOCC(=O)NCCOCCOCC(=O)N[C@@H](CCCCNC(=N)N)C(=O)N[C@H](CCCNC(=N)N)C(=O)N[C@@H](CCC(N)=O)C(=O)N[C@@H](CCCCNC(=N)N)C(=O)N1CCC[C@H]1C(=O)N[C@@H](CCCCN)C(=O)N(C)[C@@H](CC(C)C)C(=O)N[C@@H](CO)C(=O)N[C@@H](Cc1c[nH]cn1)C(=O)N[C@@H](CCCC)C(=O)NCC(=O)N1[C@H](C(=O)N[C@@H](Cc2ccc(I)cc2)C(=O)N2CCC[C@H]2C(=O)N[C@H](Cc2ccc(-c3ccccc3)cc2)C(=O)O)C[C@@H]2CCCC[C@@H]21)C(=O)O` [compound 313] ({Tridecanoyl-γGlu-AEEA-AEEA}-[hArg][dR]Q[hArg]PK[NMeL]SH[Nle]G[Oic][Phe(4-I)]P[dBip]-OH), the EC50 came out at 10.4 nM on rat APJ receptor (setting [2]) and 14.7 nM on human APJ receptor (human APJ receptor).
